In the oligonucleotide strings, read from the 5' end, every base follows the letter of its sugar. An asterisk marks phosphorothioate; unmarked linkages are phosphodiester. Other units and linkages are bracketed, terminal groups are in braces. A string of capitals states the bases alone. e = 2'-O-(2-methoxyethyl) (MOE); [5mC] = 5-methylcytosine
Assays:
adipocytes = test: Triglyceride accumulation assay in adipocytes; format: cell-based, human; conditions: differentiating adipocytes transfected with oligomeric compound; Table 75
aP2 = aP2 mRNA expression in adipocytes (real-time PCR); format: cell-based, human; conditions: differentiating adipocytes transfected with oligomeric compound; Table 75

Row | Substance | TG (triglyceride accumulation) (adipocytes) | aP2 mRNA (aP2)
1 | 327965 (antisense eA*eT*e[5mC]*eA*e[5mC]*eA*eT*eA*eG*eG*eA*eA*eT*eA*eA*eA*eA*eA*eG*e[5mC]*e[5mC]*eA*eT*eA) [compound 327965] | 116 percentage of untreated control (UTC) | 67 percentage of untreated control (UTC)
2 | 327959 (antisense e[5mC]*eA*eG*e[5mC]*e[5mC]*eG*e[5mC]*eT*eG*eT*e[5mC]*eA*e[5mC]*eA*e[5mC]*eG*e[5mC]*eA*e[5mC]*eA*eG) [compound 327959] | 33 percentage of untreated control (UTC) | 24 percentage of untreated control (UTC)
3 | 327952 (antisense e[5mC]*eT*eA*e[5mC]*eG*e[5mC]*eG*eT*eA*eT*eT*e[5mC]*eT*eT*eA*eA*eG*e[5mC]*eA*eA*eT*eA) [compound 327952] | 93 percentage of untreated control (UTC) | 56 percentage of untreated control (UTC)
4 | 327971 (antisense eG*eG*eA*eA*eA*eT*e[5mC]*e[5mC]*e[5mC]*eT*eG*eG*e[5mC]*eA*eA*eT*eG*eT*eG*eA*eT) [compound 327971] | 45 percentage of untreated control (UTC) | 49 percentage of untreated control (UTC)
5 | 327958 (antisense e[5mC]*e[5mC]*eG*eG*e[5mC]*eT*eG*e[5mC]*eA*eA*e[5mC]*eA*e[5mC]*eA*eA*eG*eA*e[5mC]*eA*e[5mC]*eG*eA) [compound 327958] | 28 percentage of untreated control (UTC) | 10 percentage of untreated control (UTC)
6 | 327945 (antisense e[5mC]*eT*eG*eT*eT*e[5mC]*e[5mC]*eT*eG*e[5mC]*eT*eG*eA*eA*e[5mC]*eT*eG*eA*eG*e[5mC]*e[5mC]*eA) [compound 327945] | 48 percentage of untreated control (UTC) | 43 percentage of untreated control (UTC)
7 | 327950 (antisense eT*e[5mC]*eA*eG*eT*eT*eT*eT*eG*e[5mC]*eA*eT*eA*eG*eA*eT*eT*eT*eG*e[5mC]*eA*e[5mC]*eA) [compound 327950] | 125 percentage of untreated control (UTC) | 95 percentage of untreated control (UTC)
8 | 327944 (antisense eA*eA*eA*eG*eT*eG*eT*e[5mC]*eA*eG*eA*eT*eA*e[5mC]*eG*eG*eT*eG*eT*eG*eG) [compound 327944] | 38 percentage of untreated control (UTC) | 71 percentage of untreated control (UTC)
9 | 327946 (antisense eA*eG*eG*e[5mC]*eG*eA*eA*eG*eG*eA*eT*eG*eA*e[5mC]*eA*eA*eA*eG*eG*eG*eA*eA) [compound 327946] | 82 percentage of untreated control (UTC) | 73 percentage of untreated control (UTC)
10 | 327949 (antisense e[5mC]*eA*e[5mC]*eA*eA*eA*eT*eT*e[5mC]*eG*eG*eA*eT*e[5mC]*eT*eA*e[5mC]*eA*eG*eG*eG*eT*eA) [compound 327949] | 43 percentage of untreated control (UTC) | 52 percentage of untreated control (UTC)
11 | 327957 (antisense e[5mC]*eA*e[5mC]*eA*eA*eG*eT*eT*e[5mC]*eG*eG*eA*eT*e[5mC]*eT*eA*e[5mC]*eG*eG*eG*eT*eT) [compound 327957] | 29 percentage of untreated control (UTC) | 23 percentage of untreated control (UTC)
12 | 327963 (antisense eA*eA*e[5mC]*e[5mC]*eT*eA*eT*e[5mC]*e[5mC]*eT*eG*eA*eA*eT*eT*eA*e[5mC]*eT*eT*eG*eA*eA) [compound 327963] | 124 percentage of untreated control (UTC) | 75 percentage of untreated control (UTC)
13 | 327935 (antisense e[5mC]*eT*eA*e[5mC]*e[5mC]*eT*eG*e[5mC]*eA*e[5mC]*eT*eA*eT*eA*eA*eG*e[5mC]*eA*e[5mC]*eT*eT*eT*eA) [compound 327935] | 41 percentage of untreated control (UTC) | 60 percentage of untreated control (UTC)
14 | 327961 (antisense eG*eG*eG*eG*eT*eA*eT*eT*eT*eG*eA*e[5mC]*eA*eA*eA*e[5mC]*eT*eG*eA*e[5mC]*eA) [compound 327961] | 77 percentage of untreated control (UTC) | 91 percentage of untreated control (UTC)
15 | 327873 (antisense e[5mC]*eT*eA*e[5mC]*e[5mC]*eA*eT*eA*eG*eG*eG*eT*eA*eA*eA*eA*e[5mC]*e[5mC]*eA*e[5mC]*eT) [compound 327873] | 105 percentage of untreated control (UTC) | 113 percentage of untreated control (UTC)
16 | 327936 (antisense eA*e[5mC]*eA*eG*e[5mC]*eT*eG*eG*eT*eT*eG*eA*eA*eG*eG*eG*eG*eA*e[5mC]*e[5mC]*eA*eA) [compound 327936] | 23 percentage of untreated control (UTC) | 40 percentage of untreated control (UTC)
17 | 327964 (antisense e[5mC]*e[5mC]*eA*eA*eG*eT*eT*e[5mC]*eT*eG*eT*e[5mC]*eA*eT*eG*e[5mC]*eA*e[5mC]*eT*eG*eA) [compound 327964] | 60 percentage of untreated control (UTC) | 96 percentage of untreated control (UTC)
18 | 327940 (antisense eG*eA*eA*e[5mC]*eA*eG*eG*eT*eA*eG*eT*e[5mC]*eT*eG*eA*eA*e[5mC]*eA*e[5mC]*eT*eG*eG*eG) [compound 327940] | 62 percentage of untreated control (UTC) | 62 percentage of untreated control (UTC)

Source: patent publication US8178506B2, “Oligomeric compounds and compositions for use in modulation of small non-coding RNAs” (Regulus Therapeutics Inc., priority 2003, dated 2012)
